{"source": "patent US11053204B2", "about": "“Pyrimidinyloxy benzene derivatives as herbicides” (FMC Corporation, priority 2015, dated 2021)", "type_in_all_cases": "in vivo", "key": {"[1]": {"tested_on": "corn (Zea mays)", "assay": "Test A postemergence, visual injury rating", "conditions": "0 is no effect, 100 is complete control", "how_it_was_run": "(§1)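 Greenhouse pot test, loam/sand soil. Formulation: non-phytotoxic solvent mix plus surfactant. Pre: directed spray onto soil after sowing. Post: plants at 1–2 leaf, 2–10 cm. Rated visually vs untreated controls at ~10 d, 0 (no effect) to 100 (complete control).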"}, "[2]": {"tested_on": "galium (catchweed bedstraw, Galium aparine)", "assay": "Test A postemergence, visual injury rating", "conditions": "0 is no effect, 100 is complete control", "how_it_was_run": "as §1"}, "[3]": {"tested_on": "wheat (Triticum aestivum)", "assay": "Test A postemergence, visual injury rating", "conditions": "0 is no effect, 100 is complete control", "how_it_was_run": "as §1"}, "[4]": {"tested_on": "kochia (Kochia scoparia)", "assay": "Test A postemergence, visual injury rating", "conditions": "0 is no effect, 100 is complete control", "how_it_was_run": "as §1"}, "[5]": {"tested_on": "Italian ryegrass (Lolium multiflorum)", "assay": "Test A postemergence, visual injury rating", "conditions": "0 is no effect, 100 is complete control", "how_it_was_run": "as §1"}, "[6]": {"tested_on": "barnyardgrass (Echinochloa crus-galli)", "assay": "Test A postemergence, visual injury rating", "conditions": "0 is no effect, 100 is complete control", "how_it_was_run": "as §1"}, "[7]": {"tested_on": "giant foxtail (Setaria faberii)", "assay": "Test A postemergence, visual injury rating", "conditions": "0 is no effect, 100 is complete control", "how_it_was_run": "as §1"}, "[8]": {"tested_on": "pigweed (Amaranthus retroflexus)", "assay": "Test A postemergence, visual injury rating", "conditions": "0 is no effect, 100 is complete control", "how_it_was_run": "as §1"}, "[9]": {"tested_on": "blackgrass (Alopecurus myosuroides)", "assay": "Test A postemergence, visual injury rating", "conditions": "0 is no effect, 100 is complete control", "how_it_was_run": "as §1"}, "[10]": {"tested_on": "ragweed (common ragweed, Ambrosia elatior)", "assay": "Test A postemergence, visual injury rating", "conditions": "0 is no effect, 100 is complete control", "how_it_was_run": "as §1"}, "[11]": {"tested_on": "soybean (Glycine max)", "assay": "Test C postemergence, plant response rating", "conditions": "for Plant response rating, Soybean: scale 0 to 100; for Soybean plant response rating: scale 0 to 100 (0 no effect, 100 complete control)", "description": "(§2) Seeds of plant species selected from blackgrass (Alopecurus myosuroides), ryegrass, Italian (Italian ryegrass, Lolium multiflorum), wheat (winter wheat, Triticum aestivum), galium (catchweed bedstraw, Galium aparine), corn (Zea mays), crabgrass, large (large crabgrass, Digitaria sanguinalis), foxtail, giant (giant foxtail, Setaria faberii), johnsongrass (Sorghum halepense), lambsquarters (Chenopodium album), morningglory (Ipomoea coccinea), nutsedge, yellow (yellow nutsedge, Cyperus esculentus), pigweed (Amaranthus retroflexus), ragweed (common ragweed, Ambrosia elatior), soybean (Glycine max), barnyardgrass (Echinochloa crus-galli), oilseed rape (Brassica napus), pigweed, palmer (palmer pigweed, Amaranthus palmeri), waterhemp (common waterhemp, Amaranthus rudis), velvetleaf (Abutilon theophrasti), kochia (Kochia scoparia), surinam grass (Brachiaria decumbens), nightshade (eastern black nightshade, Solanum ptycanthum), wild poinsettia (Euphorbia heterophylla), windgrass (Apera spica-venti), and oat, wild (wild oat Avena fatua), were planted into a blend of loam soil and sand or a silt loam soil and treated preemergence with test chemicals formulated in a non-phytotoxic solvent mixture which included a surfactant.\n(§3) At the same time, plants selected from these crop and weed species and also chickweed (common chickweed, Stellaria media), buckwheat, wild (wild buckwheat, Polygonum convolvulus), wild mustard (Sinapis arvensis), field poppy (Papaver rhoeas), field violet (Viola arvensis), geranium, cutleaf (cutleaf geranium, Geranium dissectum), Canada thistle (Cirsium arvense), and speedwell (bird's-eye speedwell, Veronica persica), were planted in pots containing Sunshine Redi-Earth® planting medium comprising spaghnum peat moss, vermiculite, starter nutrients and dolomitic limestone and treated with postemergence applications of test chemicals formulated in the same manner. Plants ranged in height from 2 to 18 cm (1- to 4-leaf stage) for postemergence treatments. Treated plants and controls were maintained in a greenhouse for 13 to 15 d, after which time all species were compared to controls and visually evaluated. Plant response ratings, summarized in Table C, are based on a scale of 0 to 100 where 0 is no effect and 100 is complete control. A dash (-) response means no test result."}, "[12]": {"tested_on": "lambsquarters (Chenopodium album)", "assay": "Test C postemergence, plant response rating", "conditions": "for Plant response rating, Lambsquarters: scale 0 to 100; for Lambsquarters plant response rating: scale 0 to 100 (0 no effect, 100 complete control)", "description": "as §2, §3"}, "[13]": {"tested_on": "oat, wild (wild oat Avena fatua)", "assay": "Test C postemergence, plant response rating", "conditions": "for Plant response rating, Oat, Wild: scale 0 to 100; for Oat, Wild plant response rating: scale 0 to 100 (0 no effect, 100 complete control)", "description": "as §2, §3"}, "[14]": {"tested_on": "foxtail, giant (giant foxtail, Setaria faberii)", "assay": "Test C postemergence, plant response rating", "conditions": "for Plant response rating, Foxtail, Giant: scale 0 to 100; for Foxtail, Giant plant response rating: scale 0 to 100 (0 no effect, 100 complete control)", "description": "as §2, §3"}, "[15]": {"tested_on": "waterhemp (common waterhemp, Amaranthus rudis)", "assay": "Test C postemergence, plant response rating", "conditions": "for Plant response rating, Waterhemp: scale 0 to 100; for Waterhemp plant response rating: scale 0 to 100 (0 no effect, 100 complete control)", "description": "as §2, §3"}, "[16]": {"tested_on": "velvetleaf (Abutilon theophrasti)", "assay": "Test C postemergence, plant response rating", "conditions": "for Plant response rating, Velvetleaf: scale 0 to 100; for Velvetleaf plant response rating: scale 0 to 100 (0 no effect, 100 complete control)", "description": "as §2, §3"}, "[17]": {"tested_on": "chickweed (common chickweed, Stellaria media)", "assay": "Test C postemergence, plant response rating", "conditions": "for Plant response rating, Chickweed: scale 0 to 100; for Chickweed plant response rating: scale 0 to 100 (0 no effect, 100 complete control)", "description": "as §2, §3"}, "[18]": {"tested_on": "ryegrass, Italian (Italian ryegrass, Lolium multiflorum)", "assay": "Test C postemergence, plant response rating", "conditions": "for Plant response rating, Ryegrass, Italian: scale 0 to 100; for Ryegrass, Italian plant response rating: scale 0 to 100 (0 no effect, 100 complete control)", "description": "as §2, §3"}, "[19]": {"tested_on": "ragweed (common ragweed, Ambrosia elatior)", "assay": "Test C postemergence, plant response rating", "conditions": "for Plant response rating, Ragweed: scale 0 to 100; for Ragweed plant response rating: scale 0 to 100 (0 no effect, 100 complete control)", "description": "as §2, §3"}}}
{"smiles": "O=C(OCC(F)(F)F)c1c(Br)cccc1Oc1ncc(Cl)cn1", "note": "[Compound 35]", "values": [{"measurement": "Corn plant response rating (0 to 100 scale)", "setting": "[1]; 125 g ai/ha", "result": 20}, {"measurement": "Corn plant response rating (0 to 100 scale)", "setting": "[1]; 500 g ai/ha", "result": 30}, {"measurement": "Galium plant response rating (0 to 100 scale)", "setting": "[2]; 125 g ai/ha", "result": 60}, {"measurement": "Galium plant response rating (0 to 100 scale)", "setting": "[2]; 500 g ai/ha", "result": 100}, {"measurement": "Wheat plant response rating (0 to 100 scale)", "setting": "[3]; 125 g ai/ha", "result": 0}, {"measurement": "Wheat plant response rating (0 to 100 scale)", "setting": "[3]; 500 g ai/ha", "result": 20}, {"measurement": "Kochia plant response rating (0 to 100 scale)", "setting": "[4]; 125 g ai/ha", "result": 90}, {"measurement": "Kochia plant response rating (0 to 100 scale)", "setting": "[4]; 500 g ai/ha", "result": 100}, {"measurement": "Ryegrass, Italian plant response rating (0 to 100 scale)", "setting": "[5]; 125 g ai/ha", "result": 0}, {"measurement": "Ryegrass, Italian plant response rating (0 to 100 scale)", "setting": "[5]; 500 g ai/ha", "result": 40}, {"measurement": "Barnyardgrass plant response rating (0 to 100 scale)", "setting": "[6]; 125 g ai/ha", "result": 10}, {"measurement": "Barnyardgrass plant response rating (0 to 100 scale)", "setting": "[6]; 500 g ai/ha", "result": 80}, {"measurement": "Foxtail, Giant plant response rating (0 to 100 scale)", "setting": "[7]; 125 g ai/ha", "result": 40}, {"measurement": "Foxtail, Giant plant response rating (0 to 100 scale)", "setting": "[7]; 500 g ai/ha", "result": 100}, {"measurement": "Pigweed plant response rating (0 to 100 scale)", "setting": "[8]; 125 g ai/ha", "result": 100}, {"measurement": "Pigweed plant response rating (0 to 100 scale)", "setting": "[8]; 500 g ai/ha", "result": 100}, {"measurement": "Blackgrass plant response rating (0 to 100 scale)", "setting": "[9]; 125 g ai/ha", "result": 40}, {"measurement": "Blackgrass plant response rating (0 to 100 scale)", "setting": "[9]; 500 g ai/ha", "result": 80}, {"measurement": "Ragweed plant response rating (0 to 100 scale)", "setting": "[10]; 125 g ai/ha", "result": 0}, {"measurement": "Ragweed plant response rating (0 to 100 scale)", "setting": "[10]; 500 g ai/ha", "result": 0}, {"measurement": "Plant response rating, Soybean", "setting": "[11]; 16 g ai/ha", "result": 25}, {"measurement": "Plant response rating, Soybean", "setting": "[11]; 31 g ai/ha", "result": 25}, {"measurement": "Soybean plant response rating", "setting": "[11]; 62 g ai/ha", "result": 35}, {"measurement": "Soybean plant response rating", "setting": "[11]; 125 g ai/ha", "result": 35}, {"measurement": "Plant response rating, Lambsquarters", "setting": "[12]; 16 g ai/ha", "result": 50}, {"measurement": "Plant response rating, Lambsquarters", "setting": "[12]; 31 g ai/ha", "result": 40}, {"measurement": "Lambsquarters plant response rating", "setting": "[12]; 62 g ai/ha", "result": 65}, {"measurement": "Lambsquarters plant response rating", "setting": "[12]; 125 g ai/ha", "result": 70}, {"measurement": "Plant response rating, Oat, Wild", "setting": "[13]; 16 g ai/ha", "result": 0}, {"measurement": "Plant response rating, Oat, Wild", "setting": "[13]; 31 g ai/ha", "result": 0}, {"measurement": "Oat, Wild plant response rating", "setting": "[13]; 62 g ai/ha", "result": 0}, {"measurement": "Oat, Wild plant response rating", "setting": "[13]; 125 g ai/ha", "result": 0}, {"measurement": "Plant response rating, Foxtail, Giant", "setting": "[14]; 16 g ai/ha", "result": 5}, {"measurement": "Plant response rating, Foxtail, Giant", "setting": "[14]; 31 g ai/ha", "result": 10}, {"measurement": "Foxtail, Giant plant response rating", "setting": "[14]; 62 g ai/ha", "result": 10}, {"measurement": "Foxtail, Giant plant response rating", "setting": "[14]; 125 g ai/ha", "result": 20}, {"measurement": "Plant response rating, Waterhemp", "setting": "[15]; 16 g ai/ha", "result": 65}, {"measurement": "Plant response rating, Waterhemp", "setting": "[15]; 31 g ai/ha", "result": 80}, {"measurement": "Waterhemp plant response rating", "setting": "[15]; 62 g ai/ha", "result": 90}, {"measurement": "Waterhemp plant response rating", "setting": "[15]; 125 g ai/ha", "result": 95}, {"measurement": "Plant response rating, Velvetleaf", "setting": "[16]; 16 g ai/ha", "result": 40}, {"measurement": "Plant response rating, Velvetleaf", "setting": "[16]; 31 g ai/ha", "result": 30}, {"measurement": "Velvetleaf plant response rating", "setting": "[16]; 62 g ai/ha", "result": 35}, {"measurement": "Velvetleaf plant response rating", "setting": "[16]; 125 g ai/ha", "result": 40}, {"measurement": "Plant response rating, Chickweed", "setting": "[17]; 16 g ai/ha", "result": 5}, {"measurement": "Plant response rating, Chickweed", "setting": "[17]; 31 g ai/ha", "result": 40}, {"measurement": "Chickweed plant response rating", "setting": "[17]; 62 g ai/ha", "result": 45}, {"measurement": "Chickweed plant response rating", "setting": "[17]; 125 g ai/ha", "result": 50}, {"measurement": "Plant response rating, Ryegrass, Italian", "setting": "[18]; 16 g ai/ha", "result": 0}, {"measurement": "Plant response rating, Ryegrass, Italian", "setting": "[18]; 31 g ai/ha", "result": 0}, {"measurement": "Ryegrass, Italian plant response rating", "setting": "[18]; 62 g ai/ha", "result": 5}, {"measurement": "Ryegrass, Italian plant response rating", "setting": "[18]; 125 g ai/ha", "result": 5}, {"measurement": "Plant response rating, Ragweed", "setting": "[19]; 16 g ai/ha", "result": 0}, {"measurement": "Plant response rating, Ragweed", "setting": "[19]; 31 g ai/ha", "result": 5}, {"measurement": "Ragweed plant response rating", "setting": "[19]; 62 g ai/ha", "result": 10}, {"measurement": "Ragweed plant response rating", "setting": "[19]; 125 g ai/ha", "result": 20}]}
